AC50 data for 13 molecules are collected here from ChEMBL document CHEMBL5291721, “A preclinical secondary pharmacology resource illuminates target-adverse drug reaction associations of marketed drugs” (Nat Commun, 2023).

One may read the AC50 as the midpoint of the concentration-response curve, whichever way the signal moves. Lower therefore signals greater potency.

For assay [1], the target named is Sodium-dependent noradrenaline transporter (Homo sapiens, UniProt P23975).
In a further assay the target is Mu-type opioid receptor (Homo sapiens, UniProt P35372).
For assay [2], the target named is Vascular endothelial growth factor receptor 2 (Homo sapiens, UniProt P35968). The class given is functional.
Assay [3] deals with T1, Progesterone receptor (Homo sapiens, UniProt P06401).
T1 sequence (P06401 whole entry): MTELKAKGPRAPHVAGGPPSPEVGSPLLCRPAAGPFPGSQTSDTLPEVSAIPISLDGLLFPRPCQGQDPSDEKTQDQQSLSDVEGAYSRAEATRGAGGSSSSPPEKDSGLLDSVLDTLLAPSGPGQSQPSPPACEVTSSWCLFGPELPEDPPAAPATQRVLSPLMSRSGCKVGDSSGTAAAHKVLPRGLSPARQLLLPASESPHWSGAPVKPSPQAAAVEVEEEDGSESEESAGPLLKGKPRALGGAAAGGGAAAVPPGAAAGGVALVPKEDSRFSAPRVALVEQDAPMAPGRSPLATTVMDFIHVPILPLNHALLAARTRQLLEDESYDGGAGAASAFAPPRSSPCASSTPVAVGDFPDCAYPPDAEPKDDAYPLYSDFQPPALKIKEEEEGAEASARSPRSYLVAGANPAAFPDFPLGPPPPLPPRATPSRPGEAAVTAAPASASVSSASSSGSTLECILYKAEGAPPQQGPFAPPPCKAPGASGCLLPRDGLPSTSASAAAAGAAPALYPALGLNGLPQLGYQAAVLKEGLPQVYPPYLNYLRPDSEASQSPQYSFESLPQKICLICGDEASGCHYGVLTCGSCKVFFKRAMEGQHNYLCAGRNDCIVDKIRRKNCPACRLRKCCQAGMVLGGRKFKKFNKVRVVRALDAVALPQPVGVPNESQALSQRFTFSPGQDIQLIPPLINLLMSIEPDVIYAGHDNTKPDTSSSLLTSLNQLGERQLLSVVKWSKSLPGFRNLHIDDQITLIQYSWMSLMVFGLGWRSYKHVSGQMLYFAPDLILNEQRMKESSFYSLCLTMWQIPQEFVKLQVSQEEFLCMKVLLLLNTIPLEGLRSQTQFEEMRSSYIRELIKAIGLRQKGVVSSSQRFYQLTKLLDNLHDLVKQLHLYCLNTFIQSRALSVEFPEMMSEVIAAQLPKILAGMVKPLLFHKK

A further assay has as its target Prothrombin (Homo sapiens, UniProt P00734). The class given is functional.
In assay [4] the target is T2, D(1A) dopamine receptor (Homo sapiens, UniProt P21728).
The target of assay [5] is T3, 5-hydroxytryptamine receptor 1A (Homo sapiens, UniProt P08908).
T3 sequence (P08908 whole entry): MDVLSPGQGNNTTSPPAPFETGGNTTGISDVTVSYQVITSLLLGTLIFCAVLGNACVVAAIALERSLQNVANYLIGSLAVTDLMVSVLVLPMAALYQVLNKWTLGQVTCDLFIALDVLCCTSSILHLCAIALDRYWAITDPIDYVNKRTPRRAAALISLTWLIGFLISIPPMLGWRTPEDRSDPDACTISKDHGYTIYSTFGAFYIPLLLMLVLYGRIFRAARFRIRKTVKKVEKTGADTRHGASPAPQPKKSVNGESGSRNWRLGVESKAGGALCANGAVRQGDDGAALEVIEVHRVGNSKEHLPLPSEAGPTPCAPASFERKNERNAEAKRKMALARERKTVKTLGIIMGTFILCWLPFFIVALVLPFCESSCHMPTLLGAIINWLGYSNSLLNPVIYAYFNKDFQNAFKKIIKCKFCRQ

Another assay concerns the target Cannabinoid receptor 1 (Homo sapiens, UniProt P21554). The class given is functional, cell-based.
Assay [6] has as its target T4, Gastrin/cholecystokinin type B receptor (Homo sapiens, UniProt P32239).
T4 sequence (P32239 whole entry): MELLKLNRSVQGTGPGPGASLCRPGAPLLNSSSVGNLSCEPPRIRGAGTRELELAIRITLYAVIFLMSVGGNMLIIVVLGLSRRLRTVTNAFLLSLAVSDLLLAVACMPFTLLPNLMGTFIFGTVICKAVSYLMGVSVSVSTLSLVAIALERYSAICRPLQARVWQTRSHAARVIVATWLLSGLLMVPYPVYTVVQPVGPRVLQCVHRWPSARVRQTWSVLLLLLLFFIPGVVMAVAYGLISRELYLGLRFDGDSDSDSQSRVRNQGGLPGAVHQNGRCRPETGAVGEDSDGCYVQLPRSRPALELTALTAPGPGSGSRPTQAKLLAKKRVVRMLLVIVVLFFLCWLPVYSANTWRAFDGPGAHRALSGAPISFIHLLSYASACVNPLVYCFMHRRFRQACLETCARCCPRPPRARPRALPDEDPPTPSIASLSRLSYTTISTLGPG

Assay [7] has as its target T1, Progesterone receptor. The class given is functional.
The target of assay [8] is 5-hydroxytryptamine receptor 2B (Homo sapiens, UniProt P41595). Type of assay: functional, cell-based.
Assay [9] addresses T2, D(1A) dopamine receptor. The class given is functional, cell-based.
The target of assay [10] is T5, Alpha-2A adrenergic receptor (Homo sapiens, UniProt P08913).
T5 sequence (P08913 whole entry): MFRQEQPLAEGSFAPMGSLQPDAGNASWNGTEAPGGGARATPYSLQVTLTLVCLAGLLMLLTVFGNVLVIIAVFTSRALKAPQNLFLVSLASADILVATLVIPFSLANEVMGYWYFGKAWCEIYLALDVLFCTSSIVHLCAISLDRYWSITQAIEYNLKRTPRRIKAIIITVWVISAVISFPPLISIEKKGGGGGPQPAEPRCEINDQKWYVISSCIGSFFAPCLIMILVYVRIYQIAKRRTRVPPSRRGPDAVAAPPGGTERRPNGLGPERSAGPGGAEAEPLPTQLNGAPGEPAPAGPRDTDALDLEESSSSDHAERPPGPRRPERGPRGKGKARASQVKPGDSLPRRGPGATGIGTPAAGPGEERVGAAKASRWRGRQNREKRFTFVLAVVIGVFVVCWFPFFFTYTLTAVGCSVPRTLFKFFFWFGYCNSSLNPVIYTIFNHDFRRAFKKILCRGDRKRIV
The class given is functional, cell-based.

In assay [11] the target is Beta-1 adrenergic receptor (Homo sapiens, UniProt P08588). Type of assay: functional.
For another assay, the target named is Vasopressin V1a receptor (Homo sapiens, UniProt P37288).
The target in assay [12] is Gamma-aminobutyric acid receptor subunit alpha-1 (Rattus norvegicus, UniProt P62813). The class given is functional.
Note: assay procedure not described here.

Chain of Vasopressin V1a receptor (P37288 whole entry): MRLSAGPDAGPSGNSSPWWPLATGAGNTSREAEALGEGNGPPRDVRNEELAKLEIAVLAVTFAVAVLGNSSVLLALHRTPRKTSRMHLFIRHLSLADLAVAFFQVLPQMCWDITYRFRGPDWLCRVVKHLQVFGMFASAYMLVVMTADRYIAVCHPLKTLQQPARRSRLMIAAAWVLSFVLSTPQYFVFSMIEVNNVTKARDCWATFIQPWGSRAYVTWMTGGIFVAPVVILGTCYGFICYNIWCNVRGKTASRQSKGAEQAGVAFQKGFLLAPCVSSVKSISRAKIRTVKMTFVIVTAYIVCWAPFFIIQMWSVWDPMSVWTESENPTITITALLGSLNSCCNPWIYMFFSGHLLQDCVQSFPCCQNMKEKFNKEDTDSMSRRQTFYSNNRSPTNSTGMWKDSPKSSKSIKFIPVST
Chain of 5-hydroxytryptamine receptor 2B (P41595 whole entry): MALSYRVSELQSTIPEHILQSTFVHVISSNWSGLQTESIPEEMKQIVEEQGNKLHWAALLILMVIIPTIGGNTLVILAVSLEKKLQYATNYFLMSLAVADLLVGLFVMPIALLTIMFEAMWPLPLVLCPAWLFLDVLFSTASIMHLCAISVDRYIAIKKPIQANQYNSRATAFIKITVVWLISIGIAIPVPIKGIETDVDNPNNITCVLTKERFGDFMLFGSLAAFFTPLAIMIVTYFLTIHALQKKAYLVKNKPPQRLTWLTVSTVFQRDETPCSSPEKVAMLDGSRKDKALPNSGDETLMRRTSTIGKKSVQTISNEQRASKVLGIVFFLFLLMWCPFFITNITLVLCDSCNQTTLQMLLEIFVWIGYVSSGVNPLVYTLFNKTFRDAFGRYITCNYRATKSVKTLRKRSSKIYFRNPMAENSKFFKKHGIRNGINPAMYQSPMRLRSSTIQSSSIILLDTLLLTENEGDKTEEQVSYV
Chain of Beta-1 adrenergic receptor (P08588 whole entry): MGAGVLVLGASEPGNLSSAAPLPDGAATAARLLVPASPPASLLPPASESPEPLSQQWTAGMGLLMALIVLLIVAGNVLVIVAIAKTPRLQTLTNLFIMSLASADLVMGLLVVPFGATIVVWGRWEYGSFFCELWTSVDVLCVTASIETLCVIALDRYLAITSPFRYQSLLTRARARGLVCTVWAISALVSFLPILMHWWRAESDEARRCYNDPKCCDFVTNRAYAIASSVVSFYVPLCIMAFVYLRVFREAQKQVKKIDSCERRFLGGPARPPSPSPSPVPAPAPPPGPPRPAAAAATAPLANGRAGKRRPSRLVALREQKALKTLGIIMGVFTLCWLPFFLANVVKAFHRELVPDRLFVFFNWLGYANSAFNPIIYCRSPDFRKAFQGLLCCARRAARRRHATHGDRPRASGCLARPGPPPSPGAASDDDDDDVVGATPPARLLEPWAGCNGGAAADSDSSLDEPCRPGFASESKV
Chain of Gamma-aminobutyric acid receptor subunit alpha-1 (P62813 whole entry): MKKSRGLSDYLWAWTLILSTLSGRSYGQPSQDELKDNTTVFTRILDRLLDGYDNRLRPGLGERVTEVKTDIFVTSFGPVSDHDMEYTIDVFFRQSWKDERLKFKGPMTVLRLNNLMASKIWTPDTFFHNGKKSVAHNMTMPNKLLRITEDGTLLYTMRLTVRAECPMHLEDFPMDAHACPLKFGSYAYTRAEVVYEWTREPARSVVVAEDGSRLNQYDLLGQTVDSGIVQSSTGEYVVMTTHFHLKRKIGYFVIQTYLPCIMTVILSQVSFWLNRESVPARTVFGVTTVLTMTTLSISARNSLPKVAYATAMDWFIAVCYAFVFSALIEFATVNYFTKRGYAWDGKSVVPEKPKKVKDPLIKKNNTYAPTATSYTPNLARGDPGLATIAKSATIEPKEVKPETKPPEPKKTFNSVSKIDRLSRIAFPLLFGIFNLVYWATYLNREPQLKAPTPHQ
Chain of Mu-type opioid receptor (P35372 whole entry): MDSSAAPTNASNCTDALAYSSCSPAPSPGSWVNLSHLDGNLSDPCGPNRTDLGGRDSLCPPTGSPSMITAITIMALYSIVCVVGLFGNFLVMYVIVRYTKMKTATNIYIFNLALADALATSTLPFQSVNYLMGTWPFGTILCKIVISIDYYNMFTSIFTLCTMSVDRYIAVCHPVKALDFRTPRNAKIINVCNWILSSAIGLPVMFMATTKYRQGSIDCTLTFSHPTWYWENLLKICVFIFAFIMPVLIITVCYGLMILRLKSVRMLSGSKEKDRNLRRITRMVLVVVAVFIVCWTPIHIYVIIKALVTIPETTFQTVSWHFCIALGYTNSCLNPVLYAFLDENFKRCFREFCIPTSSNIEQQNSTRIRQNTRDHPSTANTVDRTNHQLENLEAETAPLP
T2 sequence (P21728 whole entry): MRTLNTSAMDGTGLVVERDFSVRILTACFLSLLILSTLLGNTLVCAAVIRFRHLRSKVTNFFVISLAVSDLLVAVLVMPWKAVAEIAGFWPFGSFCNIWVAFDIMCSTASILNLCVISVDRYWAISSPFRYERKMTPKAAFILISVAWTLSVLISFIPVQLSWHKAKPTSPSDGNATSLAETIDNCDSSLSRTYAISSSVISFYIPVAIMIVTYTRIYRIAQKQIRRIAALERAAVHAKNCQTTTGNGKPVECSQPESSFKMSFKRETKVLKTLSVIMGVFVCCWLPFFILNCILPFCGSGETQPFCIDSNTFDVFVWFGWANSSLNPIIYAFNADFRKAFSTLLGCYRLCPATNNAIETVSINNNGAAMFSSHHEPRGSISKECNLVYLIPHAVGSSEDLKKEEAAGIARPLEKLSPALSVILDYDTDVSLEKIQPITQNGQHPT
Chain of Sodium-dependent noradrenaline transporter (P23975 whole entry): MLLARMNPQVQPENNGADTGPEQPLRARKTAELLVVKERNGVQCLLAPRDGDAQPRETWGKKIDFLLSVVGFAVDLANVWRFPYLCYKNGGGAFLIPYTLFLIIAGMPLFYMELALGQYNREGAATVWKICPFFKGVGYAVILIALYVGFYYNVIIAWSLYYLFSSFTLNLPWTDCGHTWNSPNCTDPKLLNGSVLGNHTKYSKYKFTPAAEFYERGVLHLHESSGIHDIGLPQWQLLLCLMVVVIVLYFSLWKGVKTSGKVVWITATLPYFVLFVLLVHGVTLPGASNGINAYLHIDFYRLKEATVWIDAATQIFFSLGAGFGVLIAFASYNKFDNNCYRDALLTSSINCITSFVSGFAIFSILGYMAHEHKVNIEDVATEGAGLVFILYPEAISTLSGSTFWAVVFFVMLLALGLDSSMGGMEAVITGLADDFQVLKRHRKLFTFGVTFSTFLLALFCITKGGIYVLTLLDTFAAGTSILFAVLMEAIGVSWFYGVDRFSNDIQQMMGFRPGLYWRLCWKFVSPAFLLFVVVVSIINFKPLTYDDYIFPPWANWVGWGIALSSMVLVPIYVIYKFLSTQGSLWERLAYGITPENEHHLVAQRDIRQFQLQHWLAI
Chain of Cannabinoid receptor 1 (P21554 whole entry): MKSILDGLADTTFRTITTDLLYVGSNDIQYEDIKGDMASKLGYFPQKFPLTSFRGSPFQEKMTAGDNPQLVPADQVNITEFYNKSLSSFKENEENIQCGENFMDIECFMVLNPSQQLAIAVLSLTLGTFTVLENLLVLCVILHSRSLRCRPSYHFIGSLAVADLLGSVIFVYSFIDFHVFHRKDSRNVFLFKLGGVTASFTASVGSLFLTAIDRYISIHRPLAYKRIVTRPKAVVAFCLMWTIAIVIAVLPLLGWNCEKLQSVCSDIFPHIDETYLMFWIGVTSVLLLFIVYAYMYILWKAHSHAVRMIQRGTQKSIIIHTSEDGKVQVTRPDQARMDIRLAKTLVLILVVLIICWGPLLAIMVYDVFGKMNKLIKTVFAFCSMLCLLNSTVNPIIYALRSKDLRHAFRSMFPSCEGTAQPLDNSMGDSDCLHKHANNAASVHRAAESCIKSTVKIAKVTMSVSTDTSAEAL

In the case of `CCC(=O)O[C@]1(C(=O)CCl)[C@@H](C)C[C@H]2[C@@H]3C[C@H](F)C4=CC(=O)C=C[C@]4(C)[C@@]3(F)[C@@H](O)C[C@@]21C` [HALOBETASOL PROPIONATE], the AC50 was over 30 µM in [1]; over 30 µM on Mu-type opioid receptor; over 30 µM in assay [2]; 0.003 µM on Progesterone receptor [3]; over 30 µM at Prothrombin; over 30 µM at D(1A) dopamine receptor [4]. This molecule returned an AC50 in assay [5] of over 30 µM.

For the molecule `CCOC(=O)N1CSC[C@H]1C(=O)O` [TELMESTEINE], the AC50 (in assay [1]; at Mu-type opioid receptor; in [2]; at Progesterone receptor [3]; on Prothrombin; on D(1A) dopamine receptor [4]) was over 30 µM each time. In [5], this molecule showed an AC50 of over 30 µM.

Take `Cc1ncc(COP(=O)(O)O)c(C=O)c1O` [PYRIDOXAL PHOSPHATE ANHYDROUS]: the AC50 (in assay [1]; at Mu-type opioid receptor; in assay [2]; on Progesterone receptor [3]; on Prothrombin; at D(1A) dopamine receptor [4]) was over 30 µM each time. Moreover, in [5], the AC50 was over 30 µM.

For the molecule `COCC1=C(C(=O)O)N2C(=O)[C@@H](NC(=O)/C(=N\OC)c3csc(N)n3)[C@H]2SC1` [CEFPODOXIME], the AC50 (on Cannabinoid receptor 1; in [6]; on Progesterone receptor [7]; in assay [8]; on D(1A) dopamine receptor [9]; in assay [10]) was over 30 µM in each case. For the same molecule, the AC50 (in assay [11]; at Vasopressin V1a receptor; in [12]) was over 30 µM in each case.

As to `CC[C@@H]([C@H](C)O)n1ncn(-c2ccc(N3CCN(c4ccc(OC[C@@H]5CO[C@@](Cn6cncn6)(c6ccc(F)cc6F)C5)cc4)CC3)cc2)c1=O` [POSACONAZOLE], the AC50 (on Progesterone receptor [7]; in assay [1]; on Mu-type opioid receptor; at Progesterone receptor [3]; at Prothrombin; at D(1A) dopamine receptor [4]) was over 30 µM each time. The molecule further came in with an AC50 in [5] of over 30 µM.

`Cc1cccc(N2CC(CO)OC2=O)c1` (centres undefined) [TOLOXATONE]: the AC50 (on Cannabinoid receptor 1; in assay [6]; at Progesterone receptor [7]; in [8]; at D(1A) dopamine receptor [9]; in assay [10]) was over 30 µM in each case. Besides, the AC50 (in assay [11]; at Vasopressin V1a receptor; in [12]) was over 30 µM each time.

For the molecule `C[C@]12CC[C@@H]3c4ccc(O)cc4C[C@@H](CCCCCCCCC[S+]([O-])CCCC(F)(F)C(F)(F)F)[C@H]3[C@@H]1CC[C@@H]2O` (some centres undefined) [FULVESTRANT], the AC50 was over 30 µM at Cannabinoid receptor 1; over 30 µM in [6]; 3.6 µM on Progesterone receptor [7]; over 30 µM in assay [8]; over 30 µM at D(1A) dopamine receptor [9]; over 30 µM in assay [10]. Besides, the AC50 (in assay [11]; at Vasopressin V1a receptor; in [12]) was over 30 µM in each case.

Consider `CC(=O)N[C@@H](CS)C(=O)O` [ACETYLCYSTEINE], for which the AC50 (on Cannabinoid receptor 1; in [6]; on Progesterone receptor [7]; in assay [8]; on D(1A) dopamine receptor [9]; in [10]) was over 30 µM in each case. Moreover, the AC50 (in [11]; on Vasopressin V1a receptor; in assay [12]) was over 30 µM throughout.

`OC1(c2ccc(Cl)cc2)c2ccccc2C2=NCCN21` (centres undefined) [MAZINDOL]: the AC50 (at Cannabinoid receptor 1; in assay [6]; on Progesterone receptor [7]; in [8]; on D(1A) dopamine receptor [9]; in [10]) was over 30 µM in each case. Also, the AC50 (in assay [11]; at Vasopressin V1a receptor; in [12]) was over 30 µM throughout.

For `CCC(=O)O[C@]1(C(=O)SCF)[C@H](C)C[C@H]2[C@@H]3C[C@H](F)C4=CC(=O)C=C[C@]4(C)[C@@]3(F)[C@@H](O)C[C@@]21C` [FLUTICASONE PROPIONATE], the AC50 (at Cannabinoid receptor 1; in [6]; in [1]; on Mu-type opioid receptor; in [2]; in assay [8]) was over 30 µM each time. For the same molecule, the AC50 (at D(1A) dopamine receptor [9]; in [10]; at Prothrombin; in [11]; at D(1A) dopamine receptor [4]; at Vasopressin V1a receptor) was over 30 µM each time. For the same molecule, the AC50 in assay [12] and in assay [5] was over 30 µM throughout.

Turning to `Cc1cc(C(C)(C)C)cc(C)c1CC1=NCCN1` [XYLOMETAZOLINE], the AC50 at Cannabinoid receptor 1 is over 30 µM; in [6] it was over 30 µM; on Progesterone receptor [7] it was over 30 µM; in assay [8], 1.16 µM; on D(1A) dopamine receptor [9], over 30 µM; in assay [10] it was 0.0616 µM. For the same molecule, the AC50 (in assay [11]; at Vasopressin V1a receptor; in assay [12]) was over 30 µM each time.

Consider `CC(CCc1ccc(O)cc1)NCCc1ccc(O)c(O)c1` (centres undefined) [DOBUTAMINE], for which the AC50 on Cannabinoid receptor 1 was over 30 µM; in assay [6], over 30 µM; on Progesterone receptor [7], over 30 µM; in assay [8], over 30 µM; at D(1A) dopamine receptor [9], 13 µM; in assay [10] it was over 30 µM. The AC50 in assay [11] was 5.58 µM; on Vasopressin V1a receptor it was over 30 µM; in assay [12] it was over 30 µM.

On to `CCC(C)C(CC)C(N)=O` (centres undefined) [VALNOCTAMIDE], for which the AC50 (at Cannabinoid receptor 1; in [6]; on Progesterone receptor [7]; in [8]; on D(1A) dopamine receptor [9]; in assay [10]) was over 30 µM in each case. In addition, the AC50 (in assay [11]; at Vasopressin V1a receptor; in assay [12]) was over 30 µM in each case.
